# Source: PubChem BioAssay AID504473 (NMMLSC, 2011)
# Calls of active or inactive are those of the source.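 Rule for the calls: active = GFP ratio to DMSO above 1.5 or below 0.66; inactive = the rest.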
# Assays:
# Assay in all cases: expression changes of rapamycin-responsive GFP fusion proteins, S. cerevisiae, GFP-tagged clone panel, flow cytometry (AID 504473);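 note: median GFP fluorescence of the cells measured by high-throughput flow cytometry; test concentration not given here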
# YKR039W = settings: S. cerevisiae GFP-tagged strains, 3 h
# YEL060C = settings: S. cerevisiae GFP-tagged strains, 3 h
# YGL062W = settings: S. cerevisiae GFP-tagged strains, 3 h
# YKL086W = settings: S. cerevisiae GFP-tagged strains, 3 h
# YNL015W = settings: S. cerevisiae GFP-tagged strains, 3 h
# YML026C = settings: S. cerevisiae GFP-tagged strains, 3 h
# YIL066C = settings: S. cerevisiae GFP-tagged strains, 3 h
# YER156C = settings: S. cerevisiae GFP-tagged strains, 3 h
# YFR031C-A = settings: S. cerevisiae GFP-tagged strains, 3 h
# YPR184W = settings: S. cerevisiae GFP-tagged strains, 3 h
# YOR375C = settings: S. cerevisiae GFP-tagged strains, 3 h
# YEL071W = settings: S. cerevisiae GFP-tagged strains, 3 h
# YKR093W = settings: S. cerevisiae GFP-tagged strains, 3 h
# YML063W = settings: S. cerevisiae GFP-tagged strains, 3 h
# YGL147C = settings: S. cerevisiae GFP-tagged strains, 3 h
# YNL112W = settings: S. cerevisiae GFP-tagged strains, 3 h
# YBL087C = settings: S. cerevisiae GFP-tagged strains, 3 h
# YIL052C = settings: S. cerevisiae GFP-tagged strains, 3 h
# YKR094C = settings: S. cerevisiae GFP-tagged strains, 3 h
# YHL021C = settings: S. cerevisiae GFP-tagged strains, 3 h
# YER081W = settings: S. cerevisiae GFP-tagged strains, 3 h
# YBR208C = settings: S. cerevisiae GFP-tagged strains, 3 h
# YFR053C = settings: S. cerevisiae GFP-tagged strains, 3 h
# YKL119C = settings: S. cerevisiae GFP-tagged strains, 3 h
# YNR001C = settings: S. cerevisiae GFP-tagged strains, 3 h
# YHR018C = settings: S. cerevisiae GFP-tagged strains, 3 h
# YML004C = settings: S. cerevisiae GFP-tagged strains, 3 h
# YIL051C = settings: S. cerevisiae GFP-tagged strains, 3 h
# YDR382W = settings: S. cerevisiae GFP-tagged strains, 3 h
# YER151C = settings: S. cerevisiae GFP-tagged strains, 3 h
# YNL214W = settings: S. cerevisiae GFP-tagged strains, 3 h
# YOR182C = settings: S. cerevisiae GFP-tagged strains, 3 h
# YCR002C = settings: S. cerevisiae GFP-tagged strains, 3 h
# YHR141C = settings: S. cerevisiae GFP-tagged strains, 3 h
# YJL056C = settings: S. cerevisiae GFP-tagged strains, 3 h
# YGL036W = settings: S. cerevisiae GFP-tagged strains, 3 h
# YIL043C = settings: S. cerevisiae GFP-tagged strains, 3 h
# YLR367W = settings: S. cerevisiae GFP-tagged strains, 3 h
# YOR136W = settings: S. cerevisiae GFP-tagged strains, 3 h
# YDL204W = settings: S. cerevisiae GFP-tagged strains, 3 h
# YLR109W = settings: S. cerevisiae GFP-tagged strains, 3 h
# YBR248C = settings: S. cerevisiae GFP-tagged strains, 3 h
# YPR145W = settings: S. cerevisiae GFP-tagged strains, 3 h
# YOR063W = settings: S. cerevisiae GFP-tagged strains, 3 h
# YPL150W = settings: S. cerevisiae GFP-tagged strains, 3 h
# YML034W = settings: S. cerevisiae GFP-tagged strains, 3 h
# YML128C = settings: S. cerevisiae GFP-tagged strains, 3 h
# YNL068C = settings: S. cerevisiae GFP-tagged strains, 3 h
# YLR142W = settings: S. cerevisiae GFP-tagged strains, 3 h
# YCL064C = settings: S. cerevisiae GFP-tagged strains, 3 h
# [1] = target: General amino acid permease AGP1 (Saccharomyces cerevisiae S288c) (UniProt P25376); settings: S. cerevisiae GFP-tagged strains, 3 h, YCL025C
# YPL265W = settings: S. cerevisiae GFP-tagged strains, 3 h
# YGL135W = settings: S. cerevisiae GFP-tagged strains, 3 h
# YER117W = settings: S. cerevisiae GFP-tagged strains, 3 h
# YDR399W = settings: S. cerevisiae GFP-tagged strains, 3 h
# YPL220W = settings: S. cerevisiae GFP-tagged strains, 3 h
# YDR453C = settings: S. cerevisiae GFP-tagged strains, 3 h
# YGR088W = settings: S. cerevisiae GFP-tagged strains, 3 h
# YMR120C = settings: S. cerevisiae GFP-tagged strains, 3 h
# YDR070C = settings: S. cerevisiae GFP-tagged strains, 3 h
# YOL052C-A = settings: S. cerevisiae GFP-tagged strains, 3 h
# YEL063C = settings: S. cerevisiae GFP-tagged strains, 3 h
# YGR121C = settings: S. cerevisiae GFP-tagged strains, 3 h
# YLR237W = settings: S. cerevisiae GFP-tagged strains, 3 h
# YHR203C = settings: S. cerevisiae GFP-tagged strains, 3 h
# YLL039C = settings: S. cerevisiae GFP-tagged strains, 3 h
# YIL069C = settings: S. cerevisiae GFP-tagged strains, 3 h
# YPR132W = settings: S. cerevisiae GFP-tagged strains, 3 h
# YHR087W = settings: S. cerevisiae GFP-tagged strains, 3 h
# YGR019W = settings: S. cerevisiae GFP-tagged strains, 3 h
# YLR058C = settings: S. cerevisiae GFP-tagged strains, 3 h
# YOR173W = settings: S. cerevisiae GFP-tagged strains, 3 h
# YMR105C = settings: S. cerevisiae GFP-tagged strains, 3 h
# YBR139W = settings: S. cerevisiae GFP-tagged strains, 3 h
# YAL060W = settings: S. cerevisiae GFP-tagged strains, 3 h
# YKL103C = settings: S. cerevisiae GFP-tagged strains, 3 h
# YOR371C = settings: S. cerevisiae GFP-tagged strains, 3 h
# YDL130W = settings: S. cerevisiae GFP-tagged strains, 3 h
# YGR034W = settings: S. cerevisiae GFP-tagged strains, 3 h
# YLR287C-A = settings: S. cerevisiae GFP-tagged strains, 3 h
# YJR148W = settings: S. cerevisiae GFP-tagged strains, 3 h
# YMR307W = settings: S. cerevisiae GFP-tagged strains, 3 h
# YMR251W-A = settings: S. cerevisiae GFP-tagged strains, 3 h
# YEL007W = settings: S. cerevisiae GFP-tagged strains, 3 h
# YHR144C = settings: S. cerevisiae GFP-tagged strains, 3 h
# YLR185W = settings: S. cerevisiae GFP-tagged strains, 3 h
# YOR038C = settings: S. cerevisiae GFP-tagged strains, 3 h
# YPL131W = settings: S. cerevisiae GFP-tagged strains, 3 h
# YJL144W = settings: S. cerevisiae GFP-tagged strains, 3 h
# YPL111W = settings: S. cerevisiae GFP-tagged strains, 3 h
# YLL026W = settings: S. cerevisiae GFP-tagged strains, 3 h
# YBR072W = settings: S. cerevisiae GFP-tagged strains, 3 h
# YCR005C = settings: S. cerevisiae GFP-tagged strains, 3 h
# YNL142W = settings: S. cerevisiae GFP-tagged strains, 3 h
# YAL061W = settings: S. cerevisiae GFP-tagged strains, 3 h
# YDL205C = settings: S. cerevisiae GFP-tagged strains, 3 h
# Sequence of General amino acid permease AGP1 (Saccharomyces cerevisiae S288c) (P25376 whole entry, looked up): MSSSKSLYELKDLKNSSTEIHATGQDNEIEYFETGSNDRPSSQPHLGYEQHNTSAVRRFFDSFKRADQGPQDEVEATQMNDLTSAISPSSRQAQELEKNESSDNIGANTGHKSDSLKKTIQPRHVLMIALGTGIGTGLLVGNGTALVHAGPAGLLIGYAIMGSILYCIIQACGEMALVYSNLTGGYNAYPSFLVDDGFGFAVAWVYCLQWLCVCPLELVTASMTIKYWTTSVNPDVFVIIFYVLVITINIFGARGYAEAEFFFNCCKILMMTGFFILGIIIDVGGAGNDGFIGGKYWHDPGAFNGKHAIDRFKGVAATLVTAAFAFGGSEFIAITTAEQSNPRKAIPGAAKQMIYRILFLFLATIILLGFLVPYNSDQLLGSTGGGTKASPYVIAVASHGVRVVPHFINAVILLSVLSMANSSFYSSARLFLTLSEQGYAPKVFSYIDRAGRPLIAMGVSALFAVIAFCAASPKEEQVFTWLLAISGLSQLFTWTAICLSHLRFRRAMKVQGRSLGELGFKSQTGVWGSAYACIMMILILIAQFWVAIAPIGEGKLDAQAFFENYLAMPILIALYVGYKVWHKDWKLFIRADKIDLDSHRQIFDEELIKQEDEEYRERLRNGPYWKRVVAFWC
structure (smiles),measurement,setting,value
CNc1nc(N)c([N+](=O)[O-])c(Nc2ccccc2OC)n1,GFP ratio to DMSO,YKR039W,1.41 (inactive)
same,GFP ratio to DMSO,YEL060C,0.535
same,GFP ratio to DMSO,YGL062W,0.915 (inactive)
same,GFP ratio to DMSO,YKL086W,0.777 (inactive)
same,GFP ratio to DMSO,YNL015W,1.84
same,GFP ratio to DMSO,YML026C,1.64
same,GFP ratio to DMSO,YIL066C,0.693 (inactive)
same,GFP ratio to DMSO,YER156C,0.819 (inactive)
same,GFP ratio to DMSO,YFR031C-A,0.381
same,GFP ratio to DMSO,YPR184W,0.669 (inactive)
same,GFP ratio to DMSO,YOR375C,0.81 (inactive)
same,GFP ratio to DMSO,YEL071W,0.904 (inactive)
same,GFP ratio to DMSO,YKR093W,0.526
same,GFP ratio to DMSO,YML063W,0.482
same,GFP ratio to DMSO,YGL147C,0.902 (inactive)
same,GFP ratio to DMSO,YNL112W,0.867 (inactive)
same,GFP ratio to DMSO,YBL087C,1.71
same,GFP ratio to DMSO,YIL052C,0.379
same,GFP ratio to DMSO,YKR094C,0.863 (inactive)
same,GFP ratio to DMSO,YHL021C,0.726 (inactive)
same,GFP ratio to DMSO,YER081W,0.632
same,GFP ratio to DMSO,YBR208C,0.657 (inactive)
same,GFP ratio to DMSO,YFR053C,0.642
same,GFP ratio to DMSO,YKL119C,0.774 (inactive)
same,GFP ratio to DMSO,YNR001C,0.75 (inactive)
same,GFP ratio to DMSO,YHR018C,0.649
same,GFP ratio to DMSO,YML004C,0.689 (inactive)
same,GFP ratio to DMSO,YIL051C,0.669 (inactive)
same,GFP ratio to DMSO,YDR382W,0.349
same,GFP ratio to DMSO,YER151C,0.745 (inactive)
same,GFP ratio to DMSO,YNL214W,0.786 (inactive)
same,GFP ratio to DMSO,YOR182C,3.17
same,GFP ratio to DMSO,YCR002C,0.541
same,GFP ratio to DMSO,YHR141C,1.25 (inactive)
same,GFP ratio to DMSO,YJL056C,0.664 (inactive)
same,GFP ratio to DMSO,YGL036W,0.643
same,GFP ratio to DMSO,YIL043C,0.829 (inactive)
same,GFP ratio to DMSO,YLR367W,0.847 (inactive)
same,GFP ratio to DMSO,YOR136W,0.793 (inactive)
same,GFP ratio to DMSO,YDL204W,0.703 (inactive)
same,GFP ratio to DMSO,YLR109W,0.271
same,GFP ratio to DMSO,YBR248C,0.723 (inactive)
same,GFP ratio to DMSO,YPR145W,0.81 (inactive)
same,GFP ratio to DMSO,YOR063W,0.813 (inactive)
same,GFP ratio to DMSO,YPL150W,0.677 (inactive)
same,GFP ratio to DMSO,YML034W,0.676 (inactive)
same,GFP ratio to DMSO,YML128C,0.697 (inactive)
same,GFP ratio to DMSO,YNL068C,0.738 (inactive)
same,GFP ratio to DMSO,YLR142W,0.7 (inactive)
same,GFP ratio to DMSO,YCL064C,0.707 (inactive)
same,GFP ratio to DMSO,[1],0.804 (inactive)
same,GFP ratio to DMSO,YPL265W,0.542
same,GFP ratio to DMSO,YGL135W,1.01 (inactive)
same,GFP ratio to DMSO,YER117W,2.43
same,GFP ratio to DMSO,YDR399W,2.04
same,GFP ratio to DMSO,YPL220W,0.579
same,GFP ratio to DMSO,YDR453C,5.92
same,GFP ratio to DMSO,YGR088W,0.767 (inactive)
same,GFP ratio to DMSO,YMR120C,0.433
same,GFP ratio to DMSO,YDR070C,0.503
same,GFP ratio to DMSO,YOL052C-A,2.31
same,GFP ratio to DMSO,YEL063C,0.998 (inactive)
same,GFP ratio to DMSO,YGR121C,0.737 (inactive)
same,GFP ratio to DMSO,YLR237W,3.5
same,GFP ratio to DMSO,YHR203C,0.792 (inactive)
same,GFP ratio to DMSO,YLL039C,0.576
same,GFP ratio to DMSO,YIL069C,0.717 (inactive)
same,GFP ratio to DMSO,YPR132W,1.76
same,GFP ratio to DMSO,YHR087W,1.71
same,GFP ratio to DMSO,YGR019W,0.679 (inactive)
same,GFP ratio to DMSO,YLR058C,0.606
same,GFP ratio to DMSO,YOR173W,0.726 (inactive)
same,GFP ratio to DMSO,YMR105C,0.849 (inactive)
same,GFP ratio to DMSO,YBR139W,0.664 (inactive)
same,GFP ratio to DMSO,YAL060W,0.645
same,GFP ratio to DMSO,YKL103C,0.755 (inactive)
same,GFP ratio to DMSO,YOR371C,0.67 (inactive)
same,GFP ratio to DMSO,YDL130W,0.302
same,GFP ratio to DMSO,YGR034W,0.607
same,GFP ratio to DMSO,YLR287C-A,0.309
same,GFP ratio to DMSO,YJR148W,0.822 (inactive)
same,GFP ratio to DMSO,YMR307W,0.757 (inactive)
same,GFP ratio to DMSO,YMR251W-A,0.286
same,GFP ratio to DMSO,YEL007W,0.721 (inactive)
same,GFP ratio to DMSO,YHR144C,0.68 (inactive)
same,GFP ratio to DMSO,YLR185W,1.38 (inactive)
same,GFP ratio to DMSO,YOR038C,0.771 (inactive)
same,GFP ratio to DMSO,YPL131W,0.657 (inactive)
same,GFP ratio to DMSO,YJL144W,7.28
same,GFP ratio to DMSO,YPL111W,0.779 (inactive)
same,GFP ratio to DMSO,YLL026W,0.761 (inactive)
same,GFP ratio to DMSO,YBR072W,3.23
same,GFP ratio to DMSO,YCR005C,0.783 (inactive)
same,GFP ratio to DMSO,YNL142W,0.756 (inactive)
same,GFP ratio to DMSO,YAL061W,0.668 (inactive)
same,GFP ratio to DMSO,YDL205C,0.742 (inactive)
